What is called melting point is the temperature of the solid-liquid transition.

From US6656949B1, “4-anilinofuro [3,2-c] quinoline derivatives, and preparation processes and uses of the same” (Kaohsiung Medical University, priority 2002, dated 2003) come the findings set out here.

Data set [1] deals with SF-268, SF-295, SF-539, SNB-19, SNB-75, and U251 of CNS cancer. Briefly: In vitro anticancer assay (NCI tumor cells screen), CNS cancer panel. Format: cell-based, human. The following applies: CNS cancer cell lines, read-out: GI50 (drug molar concentration causing 50% cell growth inhibition), CNS Cancer.
Data set [2] deals with UO-31. Briefly: In vitro anticancer assay (NCI tumor cells screen), UO-31. The class given is cell-based. Conditions: Homo sapiens; renal cancer cell line UO-31; read-out: GI50 against UO-31.
The test system of data set [3] is IGROV1, OVCAR-3, OVCAR-4, OVCAR-5, OVCAR-8, and SK-OV-3 of ovarian cancer. In words: In vitro anticancer assay (NCI tumor cells screen), ovarian cancer panel. Format: cell-based, human. Conditions: ovarian cancer cell lines, read-out: GI50 (drug molar concentration causing 50% cell growth inhibition), Ovarian Cancer.
For data set [4], the system named is UACC-62. In words: In vitro anticancer assay (NCI tumor cells screen), UACC-62. The class given is cell-based. Conditions: Homo sapiens; melanoma cell line UACC-62; read-out: GI50 against UACC-62.
Data set [5] deals with CCRF-CEM, HL-60 (TB), K-562, MOLT-4, RPMI-8226, and SR of leukemia. Briefly: In vitro anticancer assay (NCI tumor cells screen), leukemia panel. Format: cell-based. Conditions: leukemia cell lines, read-out: GI50 (drug molar concentration causing 50% cell growth inhibition), Leukemia.
The test system of data set [6] is 60 human tumor cell lines. Briefly: In vitro anticancer assay (NCI tumor cells screen), mean over 60 cell lines. Format: cell-based. Conditions: mean values over 60 cell lines tested.
Data set [7] relates to LOX IMVI, MALME-3M, M14, SK-MEL-2, SK-MEL-28, SK-MEL-5, UACC-62, and UACC-257 of melanoma. In words: In vitro anticancer assay (NCI tumor cells screen), melanoma panel. The class given is cell-based, human. Conditions: melanoma cell lines, read-out: GI50 (drug molar concentration causing 50% cell growth inhibition), Melanoma.
The subject of data set [8] is UACC-257. Briefly: In vitro anticancer assay (NCI tumor cells screen), UACC-257. Conditions: Homo sapiens; melanoma cell line UACC-257; read-out: GI50 against UACC-257. The class given is cell-based.
The test system of data set [9] is 786-0, A498, ACHN, CAKI-1, RXF 393, SN12C, TK-10, and UO-31 of renal cancer. Briefly: In vitro anticancer assay (NCI tumor cells screen), renal cancer panel. The following applies: renal cancer cell lines, read-out: GI50 (drug molar concentration causing 50% cell growth inhibition), Renal Cancer. The class given is cell-based, human.
The subject of data set [10] is MCF7, MCF7/ADR-RES, MDA-MB-231/ATCC, HS 578T, MDA-MB-435, MDA-N, and T-47D of breast cancer. In words: In vitro anticancer assay (NCI tumor cells screen), breast cancer panel. Format: cell-based, human. Conditions: breast cancer cell lines, read-out: GI50 (drug molar concentration causing 50% cell growth inhibition), Breast Cancer.
Data set [11] deals with COLO 205, HCC-2998, HCT-116, HCT-15, HT29, KM12, and SW-620 of colon cancer. Briefly: In vitro anticancer assay (NCI tumor cells screen), colon cancer panel. The class given is cell-based, human. The following applies: colon cancer cell lines, read-out: GI50 (drug molar concentration causing 50% cell growth inhibition), Colon Cancer.
The subject of data set [12] is A549/ATCC, EKVX, HOP-62, HOP-92, NCI-H226, NCI-H23, NCI-H322M, and NCI-H522 of non-small cell lung cancer. Briefly: In vitro anticancer assay (NCI tumor cells screen), lung cancer panel. The following applies: non-small cell lung cancer cell lines, read-out: GI50 (drug molar concentration causing 50% cell growth inhibition), Lung Cancer. The class given is cell-based, human.

Data set [13] deals with PC-3 and DU-145 of prostate cancer. In words: In vitro anticancer assay (NCI tumor cells screen), prostate cancer panel. The class given is cell-based, human. Conditions: prostate cancer cell lines, read-out: GI50 (drug molar concentration causing 50% cell growth inhibition), Prostate Cancer.

Counter-ions that a name gives are not always drawn. Like-named read-outs stand apart in the source and are kept apart here. Where only a bound is given, the exact number is not on record here.

Regarding `CC(=NO)c1cccc(Nc2nc3ccccc3c3occc23)c1` [Compound 4, 1-[3-(furo[3,2-c]quinolin-4-ylamino)phenyl]ethanone oxime], the GI50 in [1] (Homo sapiens) was 14.8 µM; in [2] it was 0.03 µM; in data set [3] (Homo sapiens), 14.5 µM; in data set [4], under 0.01 µM; in [5] (Homo sapiens), 9.26 µM; in data set [6] (Homo sapiens), 7.8 µM. Moreover, the GI50 was 9.82 µM in data set [7] (Homo sapiens); under 0.01 µM in [8]; 10.3 µM in data set [9] (Homo sapiens); 12 µM in data set [10] (Homo sapiens); 10.3 µM in data set [11] (Homo sapiens); 8.98 µM in data set [12] (Homo sapiens). In [13] (Homo sapiens, DU-145), the GI50 is 12.7 µM.
For the molecule `CC(=NO)c1cccc(Nc2nc3ccccc3c3occc23)c1` (as salt: HCl) [Compound 4, 1-[3-(furo[3,2-c]quinolin-4-ylamino)phenyl]ethanone oxime], the melting point was 164 °C (dec.).
The same measure, in the same setting: the value for `CON=C(C)c1cccc(Nc2nc3ccccc3c3occc23)c1` (as salt: HCl) [Compound 5, 1-[3-(furo[3,2-c]quinolin-4-ylamino)phenyl]ethanone O-methyloxime] was 222 to 223 °C.
On to `CC(=O)c1cccc(Nc2nc3ccccc3c3occc23)c1` [Compound 3], for which the GI50 in [1] is 19.1 µM; in [3], 28.4 µM; in [5] it was 91.2 µM; in [6], 22.5 µM; in [7], 40.2 µM; in data set [9], 16.1 µM. Further, the GI50 in data set [10] is 34 µM; in data set [11] it was 42.8 µM; in [12], 15.5 µM; in data set [13] it was 32.5 µM.
Consider `CON=C(C)c1cccc(Nc2nc3ccccc3c3occc23)c1` [Compound 5, 1-[3-(furo[3,2-c]quinolin-4-ylamino)phenyl]ethanone O-methyloxime], for which the GI50 was 14.8 µM in data set [1] (Homo sapiens); under 0.01 µM in data set [2]; 15.2 µM in data set [3] (Homo sapiens); under 0.01 µM in data set [4]; 15.4 µM in data set [5] (Homo sapiens); 8.78 µM in [6] (Homo sapiens). The GI50 in [7] (Homo sapiens) was 11 µM; in data set [8] it was 0.042 µM; in [9] (Homo sapiens) it was 10.1 µM; in data set [10] (Homo sapiens) it was 13.1 µM; in data set [11] (Homo sapiens) it was 10.3 µM; in data set [12] (Homo sapiens), 10.8 µM. The GI50 in [13] (Homo sapiens, DU-145) is 15.2 µM.
